Assay: xn = mol fraction of the nth substance listed
Details: 100 kPa

## CCCCCC[n+]1ccn(C)c1.O=[N+]([O-])[O-] + CCCC(C)O
293.15 K, x1 = 0.0814
  viscosity: 8.28 mPa·s
293.15 K, x1 = 0.1609
  viscosity: 14.69 mPa·s
293.15 K, x1 = 0.3491
  viscosity: 42.8 mPa·s
293.15 K, x1 = 0.4393
  viscosity: 69 mPa·s
293.15 K, x1 = 0.5608
  viscosity: 122.5 mPa·s
293.15 K, x1 = 0.6509
  viscosity: 177 mPa·s
293.15 K, x1 = 0.9393
  viscosity: 614 mPa·s
293.15 K, x1 = 1
  viscosity: 804 mPa·s
298.15 K, x1 = 0.0814
  viscosity: 6.18 mPa·s
298.15 K, x1 = 0.2408
  viscosity: 16.18 mPa·s
298.15 K, x1 = 0.3491
  viscosity: 29 mPa·s
298.15 K, x1 = 0.4393
  viscosity: 44.8 mPa·s
298.15 K, x1 = 0.5608
  viscosity: 79.4 mPa·s
298.15 K, x1 = 0.6509
  viscosity: 117.2 mPa·s
298.15 K, x1 = 0.7401
  viscosity: 173.4 mPa·s
298.15 K, x1 = 0.8508
  viscosity: 285 mPa·s
298.15 K, x1 = 0.9393
  viscosity: 416 mPa·s
298.15 K, x1 = 1
  viscosity: 545 mPa·s
303.15 K, x1 = 0.1609
  viscosity: 7.26 mPa·s
303.15 K, x1 = 0.2408
  viscosity: 11.09 mPa·s
303.15 K, x1 = 0.3491
  viscosity: 19.05 mPa·s
303.15 K, x1 = 0.4393
  viscosity: 29.4 mPa·s
303.15 K, x1 = 0.5608
  viscosity: 50.9 mPa·s
303.15 K, x1 = 0.6509
  viscosity: 76.9 mPa·s
303.15 K, x1 = 0.8508
  viscosity: 189 mPa·s
303.15 K, x1 = 0.9393
  viscosity: 282 mPa·s
303.15 K, x1 = 1
  viscosity: 369 mPa·s
308.15 K, x1 = 0.0814
  viscosity: 3.48 mPa·s
308.15 K, x1 = 0.1609
  viscosity: 5.08 mPa·s
308.15 K, x1 = 0.2408
  viscosity: 7.43 mPa·s
308.15 K, x1 = 0.3491
  viscosity: 12.22 mPa·s
308.15 K, x1 = 0.4393
  viscosity: 18.45 mPa·s
308.15 K, x1 = 0.5608
  viscosity: 32 mPa·s
308.15 K, x1 = 0.6509
  viscosity: 49.3 mPa·s
308.15 K, x1 = 0.8508
  viscosity: 125.3 mPa·s
308.15 K, x1 = 0.9393
  viscosity: 195 mPa·s
308.15 K, x1 = 1
  viscosity: 258 mPa·s
313.15 K, x1 = 0.1609
  viscosity: 3.72 mPa·s
313.15 K, x1 = 0.2408
  viscosity: 5.31 mPa·s
313.15 K, x1 = 0.3491
  viscosity: 8.55 mPa·s
313.15 K, x1 = 0.4393
  viscosity: 12.22 mPa·s
313.15 K, x1 = 0.5608
  viscosity: 21.2 mPa·s
313.15 K, x1 = 0.6509
  viscosity: 33 mPa·s
313.15 K, x1 = 0.7401
  viscosity: 50.1 mPa·s
313.15 K, x1 = 0.8508
  viscosity: 85.7 mPa·s
313.15 K, x1 = 0.9393
  viscosity: 136.2 mPa·s
313.15 K, x1 = 1
  viscosity: 186 mPa·s
318.15 K, x1 = 0.0814
  viscosity: 2.12 mPa·s
318.15 K, x1 = 0.1609
  viscosity: 2.81 mPa·s
318.15 K, x1 = 0.2408
  viscosity: 3.76 mPa·s
318.15 K, x1 = 0.3491
  viscosity: 5.85 mPa·s
318.15 K, x1 = 0.4393
  viscosity: 8.65 mPa·s
318.15 K, x1 = 0.5608
  viscosity: 14.52 mPa·s
318.15 K, x1 = 0.6509
  viscosity: 22.4 mPa·s
318.15 K, x1 = 0.7401
  viscosity: 34.9 mPa·s
318.15 K, x1 = 0.8508
  viscosity: 61.8 mPa·s
318.15 K, x1 = 0.9393
  viscosity: 99.7 mPa·s
318.15 K, x1 = 1
  viscosity: 140.2 mPa·s
323.15 K, x1 = 0.1609
  viscosity: 2.11 mPa·s
323.15 K, x1 = 0.2408
  viscosity: 2.74 mPa·s
323.15 K, x1 = 0.3491
  viscosity: 4.09 mPa·s
323.15 K, x1 = 0.4393
  viscosity: 6.05 mPa·s
323.15 K, x1 = 0.5608
  viscosity: 10.28 mPa·s
323.15 K, x1 = 0.7401
  viscosity: 25.8 mPa·s
323.15 K, x1 = 0.8508
  viscosity: 47.3 mPa·s
323.15 K, x1 = 0.9393
  viscosity: 76.9 mPa·s

## CCCC(C)O (configuration not stated) + CCCCCC[n+]1ccn(C)c1.O=[N+]([O-])[O-]
293.15 K, x2 = 0
  viscosity: 3.97 mPa·s
298.15 K, x2 = 0
  viscosity: 3.32 mPa·s
303.15 K, x2 = 0
  viscosity: 2.81 mPa·s
308.15 K, x2 = 0
  viscosity: 2.37 mPa·s
313.15 K, x2 = 0
  viscosity: 1.99 mPa·s
318.15 K, x2 = 0
  viscosity: 1.66 mPa·s
